According to patent publication US8163476B2, “CUDR as biomarker for cancer progression and therapeutic response” (The Chinese University of Hong Kong, priority 2004, dated 2012):

Columns and labels:
[1] = tested on: A431 parent cells, A5A and A10A cells; test: Response of A431 sublines to doxorubicin by MTT assay; assay type: cell-based, human; conditions: A431/A5A and A10A cells versus A431 parent cells; incubated with drug for 5 days; FIG. 1
Description: Responses of A431 parent cells, A5A and A10A cells to doxorubicin (DOX) were compared in this Example.
A431/A5A cells were A431 cells survived from treatment with 5 μg/ml of DOX, and A10A cells were derived from A5A cells survived from treatment with 10 μg/ml of DOX.
Cells were seeded in 96-well plates for 2 days and incubated with various concentrations of DOX for 5 days. At the end of the incubation, the cells were incubated in 50 μl of a 0.1 mg/ml solution of 3-[4,5-dimethylthiaol-2-yl]-2,5-diphenyltetrazolium bromide (MTT) at 37° C. for 3 h and lysed in 150 μl of dimethyl sulfoxide at room temperature for 30 min. The absorbance of each well was measured at 580 nm in a microplate reader. The survival percentage of cells was calculated as the ratio between cells with drug treatment and cells without drug treatment.

[2] = tested on: stable CUDR transfectant of A431 cells; test: DNA fragmentation assay (apoptotic response) in stable CUDR transfectants of A431 cells; assay type: cell-based, human; conditions: CUDR transfectants versus A431 cells transfected with empty vector; drug for 3 days; FIGS. 5B and 5D
Description: (§1) A431 cells were transfected with a vector carrying the full-length CUDR cDNA or an empty vector. After transfection, the cells were selected with G418 and individual colony was picked for establishment as stable transfectants. The stable transfectants were maintained in culture supplemented with G418. The response of cells to drugs was measured by both MTT assay and DNA fragmentation assay.
DNA fragmentation assay, one of the common methods, was conducted to assess the apoptotic response of cells upon treatment with anticancer drug. The cells were seeded in 60 mm Petri dish for 2 days and then exposed to various concentrations of DOX or Taxol for 3 days. After incubation, the cells were lysed in lysis buffer containing Tris-HCl, SDS, EDTA and protease K and incubated at 45° C. for 2 h. After phenol/chloroform extraction, DNA was precipitated with sodium acetate and 100% ethanol. After overnight digestion with RNase A at 37° C., 40 μg of the DNA sample were separated on 1.5% EtBr staining agarose gel. The DNA fragmentation pattern was viewed with UV light box. The presence of the “DNA laddering” pattern indicates the induction of apoptosis in cells; the more extensive the laddering pattern, the more significant the apoptosis induction. AN: control cells, A431 cells transfected with an empty vector; AG: stable CUDR transfectant of A431 cells; and M: 100 bp marker.

[3] = tested on: stable CUDR transfectant of A431 cells; test: Response of stable CUDR transfectants of A431 cells to DOX and Taxol by MTT assay; assay type: cell-based, human; conditions: CUDR transfectants versus A431 cells transfected with empty vector; drug for 5 days; FIGS. 5A and 5C
Description: as §1
For the MTT assay, the cells were seeded in a 96-well plate for 2 days and incubated with various concentrations of DOX or Taxol for 5 days. At the end of the incubation, the cells were incubated with 50 μl of a 0.1 mg/ml solution of 3-[4,5-dimethylthiaol-2-yl]-2,5-diphenyltetrazolium bromide (MTT) at 37° C. for 3 h and lysed in 150 μl of dimethyl sulfoxide at room temperature for 30 min. The absorbance of each well was measured at 580 nm in a microplate reader. The percentage of cell survival was calculated as the ratio between cells with drug treatment and cells without drug treatment. The MTT results for DOX and Taxol were shown in FIGS. 5A and 5C respectively. ◯: control cells, i.e. A431 cells transfected with empty vector; ▴: stable CUDR transfectant of A431 cells. Error bar: standard deviation.

[4] = tested on: Human squamous carcinoma A431 cells; test: Doxorubicin sensitivity of A431 cells after transfection with full-length CUDR or CUDR antisense oligonucleotides (MTT assay); assay type: cell-based; conditions: plasmid 24 h or oligonucleotides 4 h, then DOX for 48 h
Description: The role of CUDR in sensitivity of cells to doxorubicin was examined. Human squamous carcinoma A431 cells were transfected with either plasmid carrying the full-length CUDR cDNA or antisense oligonucleotides of CUDR. The cells were seeded in a 96-well plate for 4 h before incubation with full-length CUDR plasmid DNA for 24 h or CUDR oligonucleotides for 4 h. After transfection, the cells were incubated with DOX for 48 h. The cell survival was measured by MTT assay. Furthermore, the CUDR mRNA level after transfection was examined by Northern blot analysis.
In FIG. 4A, ---o--- (C): cells without transfection; -▪- (CUDR): cells transfected with full length CUDR. In FIG. 4B, ---o--- (C): Cells without transfection treatment; -●- (S): transfection with sense CUDR oligonucleotides; -▪- (AS): transfection with CUDR antisense oligonucleotides.
Antisense sequence for CUDR was: 5′-[…]-3′ (nt1347-1367) (SEQ ID NO:9) and the sequence for the sense oligonucleotides was complementary to that of the antisense.

Which results are given for `COc1cccc2c1C(=O)c1c(O)c3c(c(O)c1C2=O)C[C@@](O)(C(=O)CO)C[C@@H]3O[C@H]1C[C@H](N)[C@H](O)[C@H](C)O1` [DOX, doxorubicin]?
response of cells to drug (survival percentage of cells) [1]: more resistant; apoptotic response of cells upon drug treatment (DNA laddering) [2]: more refractory to the apoptosis; response of cells to drug (percentage of cell survival) [3]: more resistant

What does the source list for `CC(=O)O[C@H]1C(=O)[C@@]2(C)[C@H]([C@H](OC(=O)c3ccccc3)[C@]3(O)C[C@H](OC(=O)[C@H](O)[C@@H](NC(=O)c4ccccc4)c4ccccc4)C(C)=C1C3(C)C)[C@]1(OC(C)=O)CO[C@@H]1C[C@@H]2O` [Taxol]?
apoptotic response of cells upon drug treatment (DNA laddering) [2]: more refractory to the apoptosis; response of cells to drug (percentage of cell survival) [3]: more resistant

With “antisense CUDR oligonucleotides: Antisense sequence for CUDR: 5′-CAAGGTGCCAGTTAGCGTAT-3′ (nt1347-1367) (SEQ ID NO:9) (listed as DNA, chemistry not given here)” as the molecule, how does the “effect of transfection on doxorubicin sensitivity of cells (cell survival)” value ([4]; FIG. 4) read?
The value was “increased the DOX sensitivity of cells”.

And the “effect of transfection on doxorubicin sensitivity of cells (cell survival)” value ([4]; FIG. 4, listed as antisense CUDR nucleic acids)?
Its value is “increase the drug sensitivity of cancer cells”.
